Positions of bridges follow the written chain, without caps; N, C: chain ends. Primed or numbered codes have the meaning given here. No end group written: not given here. *: point of attachment. PEG4′ = PEG4 spacer between biotin and the N-terminus; Biotin = O=C1N[C@H]2[C@H](CS[C@H]2CCCCC(=O)*)N1
Legend:
[1] = system: human IgG; test: Peptide-conjugated affinity column HPLC, human IgG; assay type: binding; details: biotinylated peptide on HiTrap Streptavidin HP 1 mL, PBS wash
[2] = system: IgY‐Fc; test: Peptide-conjugated affinity column HPLC, IgY‐Fc; assay type: binding, chicken; details: for elution of IgY‐Fc from peptide column: 0.1 M glycine‐HCl, pH 2.5 vs pH 3.0, IgY and IgY‐Fc; for absorption of IgY‐Fc on peptide column: biotinylated peptide on HiTrap Streptavidin HP 1 mL, PBS wash
[3] = system: IgY; test: Peptide-conjugated affinity column HPLC, IgY; assay type: binding, chicken; details: 0.1 M glycine‐HCl, pH 2.5 vs pH 3.0; IgY and IgY‐Fc
[4] = system: human IgG; test: Immunoprecipitation with peptide-immobilized SA beads, human IgG; assay type: binding; details: biotinylated peptide on SA beads, shaken 1 h; SDS‐PAGE
[5] = molecular target: Chicken egg yolk immunoglobulin (IgY) (chicken); test: SPR

Kd [5] [µM]	Molecule	human IgG on peptide column [1]	elution of IgY‐Fc from peptide column [2]	absorption of IgY‐Fc on peptide column [2]	elution of IgY from peptide column [3]	recovery of hIgG by peptide beads [4]
–	GVKCTWSSIVDWVCVDM (disulfide 4-14 (inferred)) [Y4‐4]	human IgG passed through both peptide‐immobilized columns	eluted from the column at pH 2.5 and 3.0, although the elution peaks at pH 2.5 were sharper than those at pH 3.0	IgY and IgY‐Fc proteins were absorbed onto both columns	eluted from the column at pH 2.5 and 3.0, although the elution peaks at pH 2.5 were sharper than those at pH 3.0	hIgG was not
–	RSVCVWTAVTGWDCRND (disulfide 4-14 (inferred)) [Y5‐55]	human IgG passed through both peptide‐immobilized columns	eluted from the column at pH 2.5 and 3.0, although the elution peaks at pH 2.5 were sharper than those at pH 3.0	IgY and IgY‐Fc proteins were absorbed onto both columns	eluted from the column at pH 2.5 and 3.0, although the elution peaks at pH 2.5 were sharper than those at pH 3.0	hIgG was not
7.3	{Biotin-PEG4′}-GVKCTWSSIVDWVCVDM-NH2 (disulfide 4-14 (inferred)) [Y4‐4 synthetic peptide (biotinylated IgY‐binding peptide)]	–	–	–	–	–
4.4	{Biotin-PEG4′}-RSVCVWTAVTGWDCRND-NH2 (disulfide 4-14 (inferred)) [Y5‐55 synthetic peptide (biotinylated IgY‐binding peptide)]	–	–	–	–	–

Source: paper PMC5637892 (Journal of Peptide Science, 2017)
